Residues, ends and D or L forms follow the SMILES beside them. No end group written: not given here.

This note sets out measurements from patent US6869931B1, “Inhibition of angiogenesis by high molecular weight kininogen domain 3 peptide analogs” (Temple University - Of The Commonwealth System of Higher …, priority 1998, dated 2005).

One assay has as its system human umbilical vein endothelial cells (HUVEC). The following applies: 48 h.
Method: Human umbilical vein endothelial cells (HUVEC) were isolated and cultured as previously described (Graham et al., Blood 91:3300-7 1998). Cells were of passage 3 or lower.
To assess the effect of peptides on endothelial cell proliferation, HUVEC were suspended at a concentration of 30,000 cells/ml in M199 containing 2% FCS. One hundred microliters of this suspension was then plated in individual wells of a 96 well microplate precoated with 1% gelatin. […] Cells were then incubated for 48 hours at 37° C., at which time the relative numbers of cells in each well were determined using the Cell Titer® Aqueous cell proliferation assay (Promega, Madison, Wis.). […] The significance of differences in relative endothelial cell proliferation cell numbers at the end of the proliferation assays was determined using the Student's two-tailed T-test for paired samples. The IC50 was then calculated for each compound.
In the case of “H-ETKKLGQSLDANAEVY-OH [SEQ ID NO:15, Glu-Thr-Lys-Lys-Leu-Gly-Gln-Ser-Leu-Asp-Ala-Asn-Ala-Glu-Val-Tyr]”, the IC50 (commonly the concentration that gives 50% inhibition) was 42 µM.

For the compound “H-NNATFYFKIDNVKKAR-OH [SEQ ID NO:10, Asn-Asn-Ala-Thr-Phe-Tyr-Phe-Lys-Ile-Asp-Asn-Val-Lys-Lys-Ala-Arg]”, the IC50 is less than 0.8 µM. In turn, “YFIDFVARETTASKES-OH [SEQ ID NO:20, Tyr-Phe-Ile-Asp-Phe-Val-Ala-Arg-Glu-Thr-Thr-Ala-Ser-Lys-Glu-Ser]” registered an IC50 of 28 µM. Still for that read-out and setting: to “H-LDANAEVYVVPWEKKI-OH [SEQ ID NO:16, Leu-Asp-Ala-Asn-Ala-Glu-Val-Tyr-Val-Val-Pro-Trp-Glu-Lys-Lys-Ile]” belongs 44 µM; to `CC[C@H](C)[C@H](NC(=O)[C@H](CCCCN)NC(=O)[C@@H](N)[C@@H](C)O)C(=O)N[C@@H](CS)C(=O)N[C@H](C(=O)NCC(=O)N[C@@H](CS)C(=O)N1CCC[C@H]1C(=O)N[C@@H](CCCNC(=N)N)C(=O)N[C@@H](CC(=O)O)C(=O)N[C@H](C(=O)N1CCC[C@H]1C(=O)N[C@H](C(=O)N[C@@H](CC(N)=O)C(=O)N[C@@H](CO)C(=O)N1CCC[C@H]1C(=O)O)[C@@H](C)O)[C@@H](C)CC)C(C)C` [SEQ ID NO:11, Thr-Lys-Ile-Cys-Val-Gly-Cys-Pro-Arg-Asp-Ile-Pro-Thr-Asn-Ser-Pro] (H-TKICVGCPRDIPTNSP-OH), 30 µM.

As for “H-TITKLNAENNATFYFK-OH [SEQ ID NO:9, Thr-Ile-Thr-Lys-Leu-Asn-Ala-Glu-Asn-Asn-Ala-Thr-Phe-Tyr-Phe-Lys]”, the IC50 is less than 0.8 µM.

Staying with this assay, now noted: HUVEC, bFGF-induced proliferation.
As to “YFIDFVARETTASKES-OH [SEQ ID NO:20, Tyr-Phe-Ile-Asp-Phe-Val-Ala-Arg-Glu-Thr-Thr-Ala-Ser-Lys-Glu-Ser]”, the “Inhibition of endothelial cell proliferation (result in words)” value is “inhibits endothelial cell proliferation”.
